Source: US20090069418A1, “Compositions and Methods for the Treatment of Disorders Associated with Aberrant Vasodilation” (priority 2007, published 2009)
Like-named read-outs stand apart in the source and are kept apart here.

Key:
Format in all cases: in vivo
[1] = biological target: T1, soluble epoxide hydrolase (Mus musculus, UniProt P34914); assay: Soluble epoxide hydrolase activity assay in brain after systemic AUDA-BE ([3H]-tDPPO substrate)
T1 construct: from tissue; host or cells: mouse brain (C57Bl/6), cytosolic or peroxisomal fractions
T1 sequence (P34914 1-554): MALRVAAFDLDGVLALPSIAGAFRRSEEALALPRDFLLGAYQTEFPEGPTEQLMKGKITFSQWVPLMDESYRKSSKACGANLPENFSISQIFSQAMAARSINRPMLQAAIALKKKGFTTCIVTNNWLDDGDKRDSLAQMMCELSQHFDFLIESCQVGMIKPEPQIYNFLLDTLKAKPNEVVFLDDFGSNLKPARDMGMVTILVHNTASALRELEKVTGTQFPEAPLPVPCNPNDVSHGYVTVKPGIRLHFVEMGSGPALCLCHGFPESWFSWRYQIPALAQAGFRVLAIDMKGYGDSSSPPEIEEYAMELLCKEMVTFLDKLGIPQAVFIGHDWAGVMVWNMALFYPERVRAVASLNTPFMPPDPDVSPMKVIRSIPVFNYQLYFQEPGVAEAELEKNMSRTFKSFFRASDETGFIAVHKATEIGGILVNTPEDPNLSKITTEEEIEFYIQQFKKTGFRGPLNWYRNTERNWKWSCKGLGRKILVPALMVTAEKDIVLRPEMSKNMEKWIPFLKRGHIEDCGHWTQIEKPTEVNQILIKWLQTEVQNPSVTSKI
Description: Rate of hydration of tDPPO is determined by liquid scintillation spectroscopy after differential extraction of the epoxide and diol. Briefly, cytosolic or peroxisomal fractions were incubated at 37° C. in 100 μL incubation mixtures containing sodium phosphate buffer (90 mmol/L, pH 7.4) and tDPPO (1 to 50 μmol/L in 1 μL dimethylformamide). Incubations were stopped after 5 minutes with the addition of 60 μL methanol and 200 μL isooctane. Zero-time and zero-protein incubations served as blanks. Incubations were vortexed vigorously to extract the substrate into the isooctane (the diol metabolite remains in the aqueous phase). A known aliquot of the aqueous phase was removed and added to 1 mL scintillation cocktail for scintillation counting. Extraction efficiency exceeded 91%.
It should be noted that these sEH inhibitors are reversible transition state inhibitors. Thus, the levels of inhibition are certain to be above those detected due to dilution of the sample during work up.

C57Bl/6 mice = assay: Middle cerebral artery occlusion in mice, infarct size (Example 2); conditions: for infarct size after 2-hour MCAO: vehicle 33±2%; for reduction of infarct size compared with vehicle: 10 mg/kg
Description: (2001) J. Neurosci., 21:7543-50). […] A small laser-Doppler probe was affixed to the skull to monitor cortical perfusion and verify vascular occlusion and reperfusion. […] After securing the filament in place, the surgical site was closed, and the animal was awakened and assessed at 2 hours of occlusion for neurological deficit using a simple neurological scoring system as follows: 0=no deficit, 1=failure to extend forelimb, 2=circling, 3=unilateral weakness, 4=no spontaneous motor activity. Mice with clear neurological deficit were re-anesthetized, laser-Doppler probe re-positioned over same site on the skull, and the occluding filament was withdrawn to allow for reperfusion. Mice were then allowed to recover and observed for 1 day. […] Slices were photographed, and infarcted (unstained) and uninfarcted (red color) areas were measured with MCID software (InterFocus Imaging Ltd, Linton, UK) and integrated across all five slices. To account for the effect of edema, the infarcted area was estimated indirectly by subtracting the uninfarcted area in the ipsilateral hemisphere from the contralateral hemisphere, and expressing infarct volume as a percentage of contralateral hemisphere. […] (2000) J. Physiol. Pharmacol., 51:655-72). […] Animals were randomly assigned to treatment groups.

mice = test system: mice
From the text: Male mice between the ages of 16-24 weeks were anesthetized with isoflurane (induction 4-5 vol %; maintenance 1-2 vol %), intubated with a 20G plastic IV catheter, and mechanically ventilated using a rodent ventilator (Inspira, volume-controlled, Harvard Apparatus, MA). ECG and rectal temperature were continuously monitored using a PC-based recording device (PowerLab 8/30, ADInstruments, Colorado Springs, Colo.). The animals were positioned in a right lateral decubital position on a heating pad and rectal temperature was maintained at 37° C. throughout the experiment. A PE-10 catheter was inserted into the left jugular vein for intravenous drug infusion. Using a dissecting microscope, a left-sided thoracotomy was performed in the 4th intercostal space. […] A ligature (8-0 Monosof MV-135-4, ⅜ 5 mm tapered needle, Syneture, Norwalk, Colo.) was placed around the left coronary artery (LCA) approximately 2 mm distal to the left atrial margin. The suture was fed through a short section of PE-10 tubing to form a snare to allow temporary occlusion. The LCA was occluded for 40 minutes; occlusion was confirmed by persistent ECG changes during occlusion and visual paling of the left ventricle (LV). After 40 minutes the snare was released and reperfusion was confirmed with visual hyperemia of the LV and return of the ECG changes. After 2 hours of reperfusion the LCA was re-occluded and fluorescent polymer microspheres (0.4% solution, diameter 1-10 μm; Duke Scientific Corporation, Palo Alto, Calif.) were infused via needle puncture of the LV apex. […] Heart was then excised, rinsed in normal saline, and the right and left atria were removed under the dissecting microscope. The remaining left and right ventricles were weighed and then sliced into seven sections (d=1 mm) for imaging and staining.
Heart sections were immediately photographed with a digital camera (Canon Powershot A620) under UV light for determination of AAR. Infarct size (I) was determined by staining the heart sections in 1% 2,3,5 triphenyltetrazolium chloride (TTC) in phosphate buffer at pH 7.4 for 10 minutes, followed by 10% neutral buffered formalin (NBF) bath overnight. Pictures were taken the next day under full spectrum light. TTC stained non-infarcted myocardium red, while infarcted myocardium remained white. Both AAR and I areas were calculated in a blinded fashion using standard imaging software (Photoshop Elements 4). A calibration ruler was present in each picture to convert pixels into volume. TTC slices were volume corrected for dehydration following formalin immersion.
The 14,15-EET was obtained from BIOMOL (Plymouth Meeting, Pa.). It was dissolved in a vehicle composed of 100% ethanol and saline (1:3), resulting in a final ethanol solution of 25%. […] SNC-162, a non-peptide δ-opioid receptor agonist, was used for comparison of the magnitude of cardioprotection found within the epoxide pathway. SNC-162 (0.1 μg/g iv over 10 minutes) was dissolved in 10% DMSO.

average brain sEH activity over 24 hours ([1]; AUDA-BE 10 mg/kg intraperitoneally, 1, 3, 6 and 24 hours, vehicle 1.92±0.06 nmol/mg): 1.56±0.13 nmol/mg protein | inhibition at 10 mg/kg ([1]; mouse, ip, read-out: inhibition of brain sEH activity): ≥ 20%
SMILES: CCCCOC(=O)CCCCCCCCCCCNC(=O)NC12CC3CC(CC(C3)C1)C2 [AUDA-BE, 12-(3-adamantane-1-yl-ureido)-dodecanoic acid butyl ester]
infarct size after 2-hour MCAO (C57Bl/6 mice; 10 mg/kg intraperitoneally 1 hour before (pre)): 20±5% | infarct size after 2-hour MCAO (C57Bl/6 mice; 10 mg/kg intraperitoneally at the time of reperfusion (post)): 16±6% | reduction of infarct size compared with vehicle (C57Bl/6 mice; 1 hour before (pre)): 40% | reduction of infarct size compared with vehicle (C57Bl/6 mice; at the time of reperfusion (post)): 50% | infarct size after MCAO (C57Bl/6 mice; AUDA-BE 10 mg/kg at reperfusion combined with MS-PPOH (0.5 mg/200 mL over 24 hours before MCAO, osmotic minipump)): 34±7% | Infarct Volume (mice; PRO (given prior to reperfusion)): 15 ± 3 mm^3 | infarct size after myocardial I/R compared to vehicle (mice; given before ischemia or before reperfusion): significantly reduced infarct size | Infarct Volume (mice; given prior to LCA occlusion (PRE)): 12 ± 2 mm^3
